± gives the expanded uncertainty stated by the source.
Experiment: relative permittivity at zero frequency (dimensionless)
Settings: 101 kPa, Liquid, capacitive

## CC(=O)c1cccs1 [2-acetylthiophene]
278.15 K
  relative permittivity at zero frequency: 32.38 ± 0.32
280.65 K
  relative permittivity at zero frequency: 32.01 ± 0.32
283.15 K
  relative permittivity at zero frequency: 31.64 ± 0.32
285.65 K
  relative permittivity at zero frequency: 31.28 ± 0.31
288.15 K
  relative permittivity at zero frequency: 30.87 ± 0.31
290.65 K
  relative permittivity at zero frequency: 30.47 ± 0.3
293.15 K
  relative permittivity at zero frequency: 29.94 ± 0.3
295.65 K
  relative permittivity at zero frequency: 29.69 ± 0.3
298.15 K
  relative permittivity at zero frequency: 29.19 ± 0.29
300.65 K
  relative permittivity at zero frequency: 28.92 ± 0.29
303.15 K
  relative permittivity at zero frequency: 28.47 ± 0.28
305.65 K
  relative permittivity at zero frequency: 28.14 ± 0.28
308.15 K
  relative permittivity at zero frequency: 27.76 ± 0.28
310.65 K
  relative permittivity at zero frequency: 27.43 ± 0.27
313.15 K
  relative permittivity at zero frequency: 27.05 ± 0.27
315.65 K
  relative permittivity at zero frequency: 26.75 ± 0.27
318.15 K
  relative permittivity at zero frequency: 26.32 ± 0.26
320.65 K
  relative permittivity at zero frequency: 25.95 ± 0.26
323.15 K
  relative permittivity at zero frequency: 25.68 ± 0.26
325.65 K
  relative permittivity at zero frequency: 25.33 ± 0.25
328.15 K
  relative permittivity at zero frequency: 25.02 ± 0.25
330.65 K
  relative permittivity at zero frequency: 24.7 ± 0.25
333.15 K
  relative permittivity at zero frequency: 24.33 ± 0.24
335.65 K
  relative permittivity at zero frequency: 23.98 ± 0.24
338.15 K
  relative permittivity at zero frequency: 23.6 ± 0.24

Reference: the NIST ThermoML archive (doi:10.1016/j.fluid.2016.10.026)
